# Experimental data published in patent publication US20210355106A1, “NEW AMINO-PYRIMIDONYL-PIPERIDINYL DERIVATIVES, A PROCESS FOR THEIR PREPARATION AND PHARMACEUTICAL COMPOSITIONS CONTAINING THEM” (LES LABORATOIRES SERVIER, priority 2018, published 2021).
# Where a name gives a salt, the structure may show the parent alone.
# How the values were obtained:
# [1] = target: T1, USP7 (Homo sapiens, UniProt Q93009, C315A); assay: Inhibition of USP7 by Fluorescence Intensity (FLINT) readings, Ubiquitin-Rhodamine-110 substrate; format: biochemical; conditions: 0.25 nM His-His-USP7 (aa208-560), 60 minutes at 30° C. preincubation; Ki determined from IC50 according to Cer et al.
# T1 construct: 0.25 nM His-His-USP7 (aa208-560, |C315A|) was incubated with compound; His-His (N)
# Method: USP7 activity was measured using Rhodamine-110 c-terminal labelled Ubiquitin as a substrate (UbiQ Bio), Incubation with USP7 results in the release of Rhodamine-110 leading to an increase in fluorescence which can be used in the continuous measurement of USP7 activity.
# The USP7 reactions were performed in a 50 μL volume, in 384 well black solid low binding plates (Corning #3575). The reaction buffer consisted of 100 mM Bicine pH 8.0, 0.01% TritonX 100, 1 mM TCEP, and 10% DMSO.
# 0.25 nM His-His-USP7 (aa208-560, |C315A|) was incubated with compound (final concentration 10% DMSO) for 60 minutes at 30° C. The reaction was then initiated by the addition of 50) nM Ubiquitin-Rhodamine-110 substrate or 4 μM Ubiquitin-Rhodamine-110 substrate and the plate read every 3 minutes for 21 minutes to measure the release of Rhodamine-110. Fluorescence Intensity (FLINT) readings were measured using a Biomek Neo plate reader (Ex.485 nm, Em.535 nm).
# The inhibition of increasing doses of compound was expressed as a percentage reduction in kinetic rate compared to the kinetic rates established between ‘DMSO only’ and ‘total inhibition’ controls (no USP7). The inhibitory concentrations that gave a 50% reduction in kinetic rate (IC50) were determined, from 11-point dose response curves, in XL-Fit using a 4-Parameter Logistic Model 205 (Sigmoidal Dose-Response Model). The K, values were determined from the IC50 values according to Cer et al. Nucleic Acids Res. 2009, July 1; 37 (WebServer issue): W441-W445.
# [2] = tested on: Z138 mantle cell lymphoma tumour cell lines; assay: In vitro cytotoxicity, MTT assay; format: cell-based; conditions: Homo sapiens, Z-138; Z138 cells, exposed to the test compounds for 96 hours
# Method: The cytotoxicity studies were evaluated by MTT [3-(4,5-dimethylthiaxol-2-yl)-2,5-diphenyltetrazolium bromide|assay and carried out on Z138 mantle cell lymphoma tumour cell lines. The cells are distributed onto microplates and exposed to the test compounds for 96 hours. MTT is then added for 4 hours and converted by NAD(P)H-dependent cellular oxidoreductase enzymes in forma/an, which has a purple color. The viable cell number is proportional to the production of formazan salts and cell viability can be quantified by the absorbance of the solution at 540 nm with a spectrophotometer (Carmichael et al., Cancer Res. 1987, 47, 936-942).
# T1 sequence (Q93009 208-560 C315A): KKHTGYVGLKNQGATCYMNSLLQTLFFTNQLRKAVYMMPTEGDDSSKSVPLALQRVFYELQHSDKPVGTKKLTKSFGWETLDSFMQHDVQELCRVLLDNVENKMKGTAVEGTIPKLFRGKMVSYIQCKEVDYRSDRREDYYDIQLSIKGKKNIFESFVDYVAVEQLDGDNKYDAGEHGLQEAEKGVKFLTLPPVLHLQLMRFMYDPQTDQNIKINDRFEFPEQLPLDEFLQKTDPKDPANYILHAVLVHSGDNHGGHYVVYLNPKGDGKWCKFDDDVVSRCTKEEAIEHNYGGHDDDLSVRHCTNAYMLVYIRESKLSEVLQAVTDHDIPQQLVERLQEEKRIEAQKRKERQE
Ki [1] [nM],Structure (SMILES),IC50 [2] [nM]
8.2,"Nc1c(Oc2ccc(F)cc2)ncn(CC2(O)CCN(C(=O)[C@@H]3CCN(C(=O)c4sc(I)cc4F)C[C@H]3c3ccccc3)CC2)c1=O [Example 39, 5-amino-3-({1-[(3R,4R)-1-(3-fluoro-5-iodothiophene-2-carbonyl)-3-phenylpiperidine-4-carbonyl]-4-hydroxypiperidin-4-yl}methyl)-6-(4-fluorophenoxy)pyrimidin-4(3H)-one]",13
13,"Nc1c(Oc2ccc(F)cc2)ncn(CC2(O)CCN(C(=O)[C@@H]3CCN(Cc4ccccc4F)C[C@H]3c3ccccc3)CC2)c1=O [Example 52, 5-amino-6-(4-fluorophenoxy)-3-[(1-((3R,4R)-1-[(2-fluorophenyl)methyl]-3-phenylpiperidine-4-carbonyl}-4-hydroxypiperidin-4-yl)methyl]pyrimidin-4(3H)-one]",5.4
6.5,"Cc1nc(-c2ccccc2)sc1C(=O)N1CC[C@@H](C(=O)N2CCC(O)(Cn3cnc(Oc4ccc(F)cc4)c(N)c3=O)CC2)[C@H](c2ccccc2)C1 [Example 66, 5-amino-6-(4-fluorophenoxy)-3-({4-hydroxy-1-[(3R,4R)-1-(4-methyl-2-phenyl-1,3-thiazole-5-carbonyl)-3-phenylpiperidine-4-carbonyl]piperidin-4-yl}methyl)pyrimidin-4(3H)-one]",4.5
3.58,"Cc1ccc(-c2cncc(C(=O)N3CC[C@@H](C(=O)N4CCC(O)(Cn5cnc(Oc6ccc(F)cc6)c(N)c5=O)CC4)[C@H](c4ccccc4)C3)c2)cn1 [Example 34, 5-amino-6-(4-fluorophenoxy)-3-({4-hydroxy-1-[(3R,4R)-1-(6′-methyl[3,3′-bipyridine]-5-carbonyl)-3-phenylpiperidine-4-carbonyl]piperidin-4-yl}methyl)pyrimidin-4(3H)-one]",11
35.8,Nc1c(Oc2ccc(F)cc2)ncn(CC2(O)CCN(C(=O)[C@@H]3CCN(S(=O)(=O)c4ccc(Br)s4)C[C@H]3c3ccccc3)CC2)c1=O [Example 59],41.1
15.1,Nc1c(Oc2ccc(F)cc2)ncn(CC2(O)CCN(C(=O)[C@@H]3CCN(C(=O)c4ccccc4)C[C@H]3c3ccccc3)CC2)c1=O [Example 36],8.93
6.42,"Cc1nc(-c2ccc(N(C)C)nc2)sc1C(=O)N1CC[C@@H](C(=O)N2CCC(O)(Cn3cnc(Oc4ccc(F)cc4)c(N)c3=O)CC2)[C@H](c2ccccc2)C1 [Example 43, 5-amino-3-({1-[(3R,4R)-1-{2-[16-(dimethylamino)pyridin-3-yl-4-methyl-1,3-thiazole-5-carbonyl}-3-phenylpiperidine-4-carbonyl]-4-hydroxypiperidin-4-yl]}methyl)-6-(4-fluorophenoxy)pyrimidin-4(3H)-one]",1.2
103,"CC(C)(C)OC(=O)N1CC[C@@H](C(=O)N2CCC(O)(Cn3cnc(Oc4ccc(Cl)cc4)c(N)c3=O)CC2)[C@H](c2ccccc2)C1 [Example 1, tert-butyl (3R,4R)-4-[4-[[5-amino-4-(4-chlorophenoxy)-6-oxo-pyrimidin-1-yl]methyl]-4-hydroxy-piperidine-1-carbonyl]-3-phenyl-piperidine-1-carboxylate]",–
235,"Nc1c(Oc2ccc(F)cc2)ncn(C[C@@]2(O)CCN(C(=O)[C@@H]3CCN(C(=O)C4CC(c5ccccc5)C4)C[C@H]3c3ccccc3)CC2(F)F)c1=O (single isomer, unassigned) [Example 72]",–
4.6,Cc1ccc(-c2cccc(C(=O)N3CC[C@@H](C(=O)N4CCC(O)(Cn5cnc(Oc6ccc(F)cc6)c(N)c5=O)CC4)[C@H](c4ccccc4)C3)c2)cn1 [Example 32],–
232,Nc1c(Oc2ccc(Cl)c(F)c2)ncn(CC2(O)CCN(C(=O)[C@@H]3CCNC[C@H]3c3ccccc3)CC2)c1=O [Example 16],–
78.5,"Nc1c(Oc2ccc(F)cc2)ncn(CC2(O)CCN(C(=O)[C@@H]3CCN(C4(c5cccc(Br)c5)COC4)C[C@H]3c3ccccc3)CC2)c1=O [Example 170, 5-amino-3-[[1-[(3R,4R)-1-[3-(3-bromophenyl)oxetan-3-yl]-3-phenyl-piperidine-4-carbonyl]-4-hydroxy-4-piperidyl]methyl]-6-(4-fluorophenoxy)pyrimidin-4-one]",–
418,Nc1c(Oc2ccccc2)ncn(CC2(O)CCN(C(=O)[C@@H]3CCN(C4(c5ccc(F)cc5)COC4)C[C@H]3c3ccccc3)CC2)c1=O [Example 115],–
6.51,"Nc1c(Oc2ccc(F)cc2)ncn(CC2(O)CCN(C(=O)[C@@H]3CCN(C(=O)c4ccc5c(c4)C(=O)C(=O)N5)C[C@H]3c3ccccc3)CC2)c1=O [Example 58, 5-[(3R,4R)-4-[4-[[5-amino-4-(4-fluorophenoxy)-6-oxo-pyrimidin-1-yl]methyl]-4-hydroxy-piperidine-1-carbonyl]-3-phenyl-piperidine-1-carbonyl]indoline-2,3-dione]",–
329,"Nc1c(Oc2cccc(C(F)(F)F)c2)ncn(CC2(O)CCN(C(=O)[C@@H]3CCNC[C@H]3c3ccccc3)CC2)c1=O [Example 18, 5-amino-3-[[4-hydroxy-1-[(3R,4R)-3-phenylpiperidine-4-carbonyl]-4-piperidyl]methyl]-6-[3-(trifluoromethyl)phenoxy]pyrimidin-4-one hydrochloride]",–
112,"Nc1c(Oc2ccccc2)ncn(CC2(O)CCN(C(=O)[C@@H]3CCNC[C@H]3c3ccccc3)CC2)c1=O [Example 20, 5-amino-3-[4-hydroxy-1-[(3R,4R)N-phenylpiperidine-4-carbonyl-4-piperidyl]methyl]-6-phenoxy-pyrimidin-4-one]",–
123,"Nc1c(Oc2ccc(F)cc2)ncn(CC2(O)CCN(C(=O)[C@@H]3CCN(S(=O)(=O)c4ccc(-c5cccs5)s4)C[C@H]3c3ccccc3)CC2)c1=O [Example 118, 5-amino-6-(4-fluorophenoxy)-3-[[4-hydroxy-1-[(3R,4R)-3-phenyl-[[5-(2thienyl)-2-thienyl]sulfonyl]piperidine-4-carbonyl]-4-piperidyl]methyl]pyrimidin-4-one]",–
116,"COc1cc(Oc2ncn(CC3(O)CCN(C(=O)[C@@H]4CCNC[C@H]4c4ccccc4)CC3)c(=O)c2N)ccc1F [Example 17, 5-amino-6-(4-fluoro-3-methoxy-phenoxy)-3-[[4-hydroxy-1-(3R,4R)-3-phenylpiperidine-4-carbonyl]-4-piperidyl]methyl]pyrimidin-4-one hydrochloride]",–
21.9,"Cc1nc(-c2cccs2)sc1C(=O)N1CC[C@@H](C(=O)N2CCC(O)(Cn3cnc(Oc4ccc(F)cc4)c(N)c3=O)CC2)[C@H](c2ccccc2)C1 [Example 150, 5-amino-6-(4-fluorophenoxy)-3-[[4-hydroxy-1-[(3R,4R)-1-[4-methyl-2-(2-thienyl)thiazole-5-carbonyl]-3-phenyl-piperidine-4-carbonyl]-4-piperidyl]methyl]pyrimidin-4-one]",–
16,COc1ccc(NC(=O)N2CC[C@@H](C(=O)N3CCC(O)(Cn4cnc(Oc5ccc(F)cc5)c(N)c4=O)CC3)[C@H](c3ccccc3)C2)c(OC)c1 [Example 82],–
286,COc1cc(Cl)cc(Oc2ncn(CC3(O)CCN(C(=O)[C@@H]4CCNC[C@H]4c4ccccc4)CC3)c(=O)c2N)c1 [Example 15],–
131,"CC(C)(C)OC(=O)N1CC[C@@H](C(=O)N2CCC(O)(Cn3cnc(Oc4ccc(F)cc4)c(N)c3=O)CC2)[C@H](c2ccccc2)C1 [Example 8, tert-butyl (3R,4R)-4-[4-[[5-amino-4-(4-fluorophenoxy)-6-oxo-pyrimidin-1-yl]methyl]-4-hydroxy-piperidine-1-carbonyl]-3-phenyl-piperidine-1-carboxylate]",–
112,"Nc1c(Oc2ccc(F)cc2)ncn(C[C@@]2(O)CCN(C(=O)[C@@H]3CCN(C(=O)C4CC(c5ccccc5)C4)C[C@H]3c3ccccc3)CC2(F)F)c1=O (single isomer, unassigned) [Example 71]",–
299,"CC(C)(C)OC(=O)N1CC[C@@H](C(=O)N2CCC(O)(Cn3cnc(Oc4cccc(C(F)(F)F)c4)c(N)c3=O)CC2)[C@H](c2ccccc2)C1 [Example 5, tert-butyl (3R,4R)-4-[4-[[5-amino-6-oxo-4-[3-(trifluoromethyl)phenoxy]pyrimidin-1-yl]methyl]-4-hydroxy-piperidine-1-carbonyl]-3-phenyl-piperidine-1-carboxylate]",–

Structure (SMILES),Ki [1] [nM],IC50 [2] [nM]
CC(C)(C)OC(=O)N1CC[C@@H](C(=O)N2CC[C@](O)(Cn3cnc(Oc4ccc(F)cc4)c(N)c3=O)C(F)(F)C2)[C@H](c2ccccc2)C1 [Example 10],104,–
